According to PubChem BioAssay (NCI):
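Where inhibition never reached the appropriate level, the endpoint shown equals the highest concentration tested. Otherwise, values were interpolated linearly from a five-concentration, 48-hour dose response in 96-well plates. The concentration for 50% growth inhibition is given as GI50. Definition used: TGI = concentration required for complete inhibition of growth.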

Key:
Experiment in all cases: growth of human tumour cells (NCI), 48 h
786-0 renal = system: 786-0 renal
A498 renal = system: A498 renal
A549 NSCLC = system: A549 NSCLC
ACHN renal = system: ACHN renal
CAKI-1 renal = system: CAKI-1 renal
COLO 205 colon = system: COLO 205 colon
DU-145 prostate = system: DU-145 prostate
EKVX NSCLC = system: EKVX NSCLC
HCC-2998 colon = system: HCC-2998 colon
HCT-116 colon = system: HCT-116 colon
HCT-15 colon = system: HCT-15 colon
HL-60(TB) leukemia = system: HL-60(TB) leukemia
HOP-62 NSCLC = system: HOP-62 NSCLC
HOP-92 NSCLC = system: HOP-92 NSCLC
HS 578T breast = system: HS 578T breast
HT29 colon = system: HT29 colon
IGROV1 ovarian = system: IGROV1 ovarian
K-562 leukemia = system: K-562 leukemia
KM12 colon = system: KM12 colon
LOX IMVI melanoma = system: LOX IMVI melanoma
M14 melanoma = system: M14 melanoma
MALME-3M melanoma = system: MALME-3M melanoma
MCF7 breast = system: MCF7 breast
MDA-MB-231 breast = system: MDA-MB-231 breast
MDA-MB-435 = system: MDA-MB-435
MOLT-4 leukemia = system: MOLT-4 leukemia
NCI-H226 lung = system: NCI-H226 lung
NCI-H23 lung = system: NCI-H23 lung
NCI-H460 lung = system: NCI-H460 lung
NCI-H522 lung = system: NCI-H522 lung
NCI/ADR-RES ovarian = system: NCI/ADR-RES ovarian
OVCAR-3 ovarian = system: OVCAR-3 ovarian
OVCAR-4 ovarian = system: OVCAR-4 ovarian
OVCAR-5 ovarian = system: OVCAR-5 ovarian
OVCAR-8 ovarian = system: OVCAR-8 ovarian
PC-3 prostate = system: PC-3 prostate
RPMI-8226 leukemia = system: RPMI-8226 leukemia
RXF 393 renal = system: RXF 393 renal
SF-268 CNS = system: SF-268 CNS
SF-295 CNS = system: SF-295 CNS
SF-539 CNS = system: SF-539 CNS
SK-MEL-2 melanoma = system: SK-MEL-2 melanoma
SK-MEL-28 melanoma = system: SK-MEL-28 melanoma
SK-MEL-5 melanoma = system: SK-MEL-5 melanoma
SK-OV-3 ovarian = system: SK-OV-3 ovarian
SN12C renal = system: SN12C renal
SNB-19 CNS = system: SNB-19 CNS
SNB-75 CNS = system: SNB-75 CNS
SR leukemia = system: SR leukemia
SW-620 colon = system: SW-620 colon
T-47D breast = system: T-47D breast
TK-10 renal = system: TK-10 renal
U251 CNS = system: U251 CNS
UACC-257 melanoma = system: UACC-257 melanoma
UACC-62 melanoma = system: UACC-62 melanoma
UO-31 renal = system: UO-31 renal

Structure (SMILES): O=C1/C(=C/c2ccc(Cl)cc2)N=C(c2ccccc2)N1c1cc(C(F)(F)F)ccc1Cl
- GI50 (786-0 renal): 14.4 µM
- TGI (786-0 renal): 50.6 µM
- GI50 (A498 renal): 36.7 µM
- TGI (A498 renal): > 100 µM
- GI50 (A549 NSCLC): 24.2 µM
- TGI (A549 NSCLC): > 100 µM
- GI50 (ACHN renal): 22.1 µM
- TGI (ACHN renal): > 100 µM
- GI50 (CAKI-1 renal): 31 µM
- TGI (CAKI-1 renal): 69.5 µM
- GI50 (COLO 205 colon): 17.5 µM
- TGI (COLO 205 colon): 40.7 µM
- GI50 (DU-145 prostate): 31.2 µM
- TGI (DU-145 prostate): > 100 µM
- GI50 (EKVX NSCLC): 21.9 µM
- TGI (EKVX NSCLC): > 100 µM
- GI50 (HCC-2998 colon): 27.5 µM
- TGI (HCC-2998 colon): 87 µM
- GI50 (HCT-116 colon): 16.8 µM
- TGI (HCT-116 colon): 48.3 µM
- GI50 (HCT-15 colon): 18.9 µM
- TGI (HCT-15 colon): 86.6 µM
- GI50 (HL-60(TB) leukemia): 16.9 µM
- TGI (HL-60(TB) leukemia): 42.7 µM
- GI50 (HOP-62 NSCLC): 15 µM
- TGI (HOP-62 NSCLC): 42.8 µM
- GI50 (HOP-92 NSCLC): 20.3 µM
- TGI (HOP-92 NSCLC): 58.5 µM
- GI50 (HS 578T breast): 21.4 µM
- TGI (HS 578T breast): 66.5 µM
- GI50 (HT29 colon): 24.1 µM
- TGI (HT29 colon): 73.5 µM
- GI50 (IGROV1 ovarian): 18.5 µM
- TGI (IGROV1 ovarian): 85.7 µM
- GI50 (K-562 leukemia): 20.1 µM
- TGI (K-562 leukemia): 79.9 µM
- GI50 (KM12 colon): 21.9 µM
- TGI (KM12 colon): 84 µM
- GI50 (LOX IMVI melanoma): 16.5 µM
- TGI (LOX IMVI melanoma): 41.2 µM
- GI50 (M14 melanoma): 22 µM
- TGI (M14 melanoma): 90.1 µM
- GI50 (MALME-3M melanoma): 27.7 µM
- TGI (MALME-3M melanoma): 86.5 µM
- GI50 (MCF7 breast): 17.6 µM
- TGI (MCF7 breast): 57.9 µM
- GI50 (MDA-MB-231 breast): 16 µM
- TGI (MDA-MB-231 breast): 55.8 µM
- GI50 (MDA-MB-435): 22.7 µM
- TGI (MDA-MB-435): 71.4 µM
- GI50 (MOLT-4 leukemia): 15.5 µM
- TGI (MOLT-4 leukemia): 51.2 µM
- GI50 (NCI-H226 lung): 23.6 µM
- TGI (NCI-H226 lung): > 100 µM
- GI50 (NCI-H23 lung): 34.4 µM
- TGI (NCI-H23 lung): > 100 µM
- GI50 (NCI-H460 lung): 19.4 µM
- TGI (NCI-H460 lung): 61.7 µM
- GI50 (NCI-H522 lung): 20.1 µM
- TGI (NCI-H522 lung): 76 µM
- GI50 (NCI/ADR-RES ovarian): 22.3 µM
- TGI (NCI/ADR-RES ovarian): 77.6 µM
- GI50 (OVCAR-3 ovarian): 17.4 µM
- TGI (OVCAR-3 ovarian): 69 µM
- GI50 (OVCAR-4 ovarian): 20.2 µM
- TGI (OVCAR-4 ovarian): 89.7 µM
- GI50 (OVCAR-5 ovarian): 24.9 µM
- TGI (OVCAR-5 ovarian): 64.2 µM
- GI50 (OVCAR-8 ovarian): 28.6 µM
- TGI (OVCAR-8 ovarian): > 100 µM
- GI50 (PC-3 prostate): 20.8 µM
- TGI (PC-3 prostate): 71.8 µM
- GI50 (RPMI-8226 leukemia): 21.5 µM
- TGI (RPMI-8226 leukemia): 52.1 µM
- GI50 (RXF 393 renal): 27.5 µM
- TGI (RXF 393 renal): > 100 µM
- GI50 (SF-268 CNS): 28.8 µM
- TGI (SF-268 CNS): > 100 µM
- GI50 (SF-295 CNS): 17.2 µM
- TGI (SF-295 CNS): 48.8 µM
- GI50 (SF-539 CNS): 18.1 µM
- TGI (SF-539 CNS): 44.3 µM
- GI50 (SK-MEL-2 melanoma): 17.5 µM
- TGI (SK-MEL-2 melanoma): 45.4 µM
- GI50 (SK-MEL-28 melanoma): 39.1 µM
- TGI (SK-MEL-28 melanoma): > 100 µM
- GI50 (SK-MEL-5 melanoma): 16 µM
- TGI (SK-MEL-5 melanoma): 29.5 µM
- GI50 (SK-OV-3 ovarian): 35.7 µM
- TGI (SK-OV-3 ovarian): > 100 µM
- GI50 (SN12C renal): 30.5 µM
- TGI (SN12C renal): > 100 µM
- GI50 (SNB-19 CNS): 36.4 µM
- TGI (SNB-19 CNS): > 100 µM
- GI50 (SNB-75 CNS): 18.6 µM
- TGI (SNB-75 CNS): 78.7 µM
- GI50 (SR leukemia): 28.7 µM
- TGI (SR leukemia): 68 µM
- GI50 (SW-620 colon): 28.9 µM
- TGI (SW-620 colon): > 100 µM
- GI50 (T-47D breast): 22.4 µM
- TGI (T-47D breast): > 100 µM
- GI50 (TK-10 renal): 31.7 µM
- TGI (TK-10 renal): > 100 µM
- GI50 (U251 CNS): 22.5 µM
- TGI (U251 CNS): > 100 µM
- GI50 (UACC-257 melanoma): 26.9 µM
- TGI (UACC-257 melanoma): 99.6 µM
- GI50 (UACC-62 melanoma): 14 µM
- TGI (UACC-62 melanoma): 44.9 µM
- GI50 (UO-31 renal): 19.4 µM
- TGI (UO-31 renal): > 100 µM
